Assay results as given in PubChem BioAssay AID2060507 (Molecular Pharmacology Branch, DTP, NCI, 2025).

Tested on: 519858-162-T-J1-PDC complex spheroid viability
Assay: Anticancer human tumor 519858-162-T-J1-PDC patient-derived colon adenocarcinoma cell line growth inhibition [GQUAD]
Details: for IC50: curve of first compound; for viability, T/C: stronger effect = lower value
Source text: DNA G-quadruplex Stabilizer Agents in Combinations in Complex Spheroids
A high-throughput screen of multi-cell type tumor spheroids was designed to identify active combinations of DNA G-quadruplex stabilizer agents and targeted small molecules. Complex spheroids include a stromal component modeled by human endothelial cells (HUVEC) and fibroblasts modeled by human mesenchymal stem cells (MSCs). The concentration ranges selected for each drug and investigational agent were based upon clinically achievable concentrations if the clinical Cmax of the agent was known.
Compounds. The drugs and investigational agents: pidnarulex (CX-5461; NSC782164), APTO-253 (NSC789042), BRACO-19 (NSC847499), peposertib (NSC802822), ceralasertib (NSC780249), elimusertib (NSC800525), camonsertib (NSC841442), AZD-1390 (NSC803789), olaparib (NSC753686), talazoparib (NSC767125), ART-558 (NSC835418), sotorasib (NSC818433), MRTX-1133 (NSC836407), SN-38 (NSC673596), topotecan (NSC609699), etoposide (NSC141540), doxorubicin (NSC123127), gemcitabine (NSC613327), 5-fluorouracil (NSC19893), paclitaxel (NSC125973), vemurafenib (NSC761431), panobinostat (NSC761190), R-306465 (JNJ-16241199; NSC773264), adavosertib (NSC754352), TP-3654 (NSC805149), carboplatin (NSC241240), KSQ-4279 (NSC840948), and staurosporine (NSC755774) were obtained from the National Cancer Institute (NCI) Developmental Therapeutics Program Chemical Repository (34). The FDA-approved anticancer drug set is available from the NCI Developmental Therapeutics Program. […] The stock solutions were prepared in dimethyl sulfoxide (DMSO, Sigma-Aldrich, St. Louis, MO, cat. D2650) at 800-fold the tested concentration and stored at -70 degrees C prior to their use. All drugs and investigational agents were tested over a range starting from a high concentration at or near the clinical Cmax and decreasing in half-log increments. If the clinical Cmax for an agent had not been determined, the highest concentration tested was 10 microM.
2.3 Cell Culture. All cells were maintained in an incubator at 37 degrees C and 5% CO2 with 95% humidity. The PDC lines were cultured according to standard operating procedures established by the NCI PDMR. All PDCs were thawed and cultured in Matrigel-coated flasks prepared with a working solution of 1X Ham's F-12 nutrient mix, without supplementation (Invitrogen, cat. 11765054), 100 U/mL penicillin-streptomycin (Invitrogen, cat. 15140122), and 2.5% Matrigel (Corning Inc., cat. 354248) for the first three passages. The 857933-349-R-J2-PDC line was cultured in 6C/Colon 1B media, which includes advanced DMEM/F-12 (Thermo Fisher Scientific, cat. 12634028), 10 mM HEPES (Thermo Fisher Scientific, cat. 15630080), 1X GlutaMAX supplement (Thermo Fisher Scientific, cat. 35050061), 0.1 mg/mL primocin (InvivoGen, cat. ant-pm-2), 10% defined fetal bovine serum, heat inactivated (HyClone Laboratories Inc., cat. SH30070.03HI), 50% L-WRN conditioned media (ATCC, cat. CRL-3276), 1.25 mM N-Acetyl-L-cysteine (Sigma-Aldrich, cat. A9165), 10 mM nicotinamide (Sigma-Aldrich, cat. N0636), 1X B-27 supplement (Thermo Fisher Scientific, cat. 17504044), 1X N-2 supplement (Thermo Fisher Scientific, cat. 17502048), 10 microM Y-27632 dihydrochloride (Tocris Bioscience, cat. 1254), and 50 ng/mL human EGF recombinant protein (Thermo Fisher Scientific, cat. PHG0311). The 485176-168-R4-J1-PDC line was cultured in Panc media, which includes all 6C/Colon 1B media components plus 100 ng/mL human FGF-10 (Thermo Fisher Scientific, cat. 100-26), 500 nM SB-431542 (Selleckchem, cat. S1067), and gastrin (Tocris, cat. 3006).
[…]

[1] = second compound 0.0316 µM, first compound 0.0316 µM
[2] = second compound 0.0316 µM, first compound 0.1 µM
[3] = second compound 0.0316 µM, first compound 0.316 µM
[4] = second compound 0.0316 µM, first compound 1 µM
[5] = second compound 0.0316 µM, first compound 3.16 µM
[6] = second compound 0.0316 µM, first compound 10 µM
[7] = second compound 0.1 µM, first compound 0.0316 µM
[8] = second compound 0.1 µM, first compound 0.1 µM
[9] = second compound 0.1 µM, first compound 0.316 µM
[10] = second compound 0.1 µM, first compound 1 µM
[11] = second compound 0.1 µM, first compound 3.16 µM
[12] = second compound 0.1 µM, first compound 10 µM
[13] = second compound 0.316 µM, first compound 0.0316 µM
[14] = second compound 0.316 µM, first compound 0.1 µM
[15] = second compound 0.316 µM, first compound 0.316 µM
[16] = second compound 0.316 µM, first compound 1 µM
[17] = second compound 0.316 µM, first compound 3.16 µM
[18] = second compound 0.316 µM, first compound 10 µM
[19] = second compound 1 µM, first compound 0.0316 µM
[20] = second compound 1 µM, first compound 0.1 µM
[21] = second compound 1 µM, first compound 0.316 µM
[22] = second compound 1 µM, first compound 1 µM
[23] = second compound 1 µM, first compound 3.16 µM
[24] = second compound 1 µM, first compound 10 µM
[25] = second compound 3.16 µM, first compound 0.0316 µM
[26] = second compound 3.16 µM, first compound 0.1 µM
[27] = second compound 3.16 µM, first compound 0.316 µM
[28] = second compound 3.16 µM, first compound 1 µM
[29] = second compound 3.16 µM, first compound 3.16 µM
[30] = second compound 3.16 µM, first compound 10 µM
[31] = second compound 10 µM, first compound 0.0316 µM
[32] = second compound 10 µM, first compound 0.1 µM
[33] = second compound 10 µM, first compound 0.316 µM
[34] = second compound 10 µM, first compound 1 µM
[35] = second compound 10 µM, first compound 3.16 µM
[36] = second compound 10 µM, first compound 10 µM
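Further: spheroids exposed to compounds for 7 days.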
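Wherever viability, T/C is given: 100% = DMSO vehicle control viability.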

For COc1ncnc(C2CC2)c1-c1ncc2cnn(Cc3ccc(-c4nc(C(F)(F)F)cn4C(C)C)cc3)c2n1 + CN(C)c1ccc(Nc2c3ccc(NC(=O)CCN4CCCC4)cc3nc3cc(NC(=O)CCN4CCCC4)ccc23)cc1, the IC50 (second compound 0.0316 µM) was > 10000 nM, the IC50 (second compound 0.1 µM) was > 10000 nM and the IC50 (second compound 0.316 µM) was > 10000 nM. The IC50 (second compound 1 µM) was > 10000 nM, the IC50 (second compound 3.16 µM) was > 10000 nM and the IC50 (second compound 10 µM) was > 10000 nM. It also gave a viability, T/C [1] of 120%, a viability, T/C [2] of 83% and a viability, T/C [3] of 103%. The viability, T/C [4] was 89.3%, the viability, T/C [5] was 99.6% and the viability, T/C [6] was 115%. The viability, T/C [7] was 93.4%, the viability, T/C [8] was 97.8% and the viability, T/C [9] was 102%. For the same molecule, the viability, T/C [10] was 75.6%, the viability, T/C [11] was 91.4% and the viability, T/C [12] was 103%. The viability, T/C [13] was 86%, the viability, T/C [14] was 117% and the viability, T/C [15] was 116%. The viability, T/C [16] was 76%, the viability, T/C [17] was 66.5% and the viability, T/C [18] was 84.9%. The viability, T/C [19] was 85.1%, the viability, T/C [20] was 80.7% and the viability, T/C [21] was 67.5%. It also gave a viability, T/C [22] of 68%, a viability, T/C [23] of 73% and a viability, T/C [24] of 72.4%. The viability, T/C [25] was 114%, the viability, T/C [26] was 79.7% and the viability, T/C [27] was 52.2%. It also gave a viability, T/C [28] of 56.6%, a viability, T/C [29] of 54% and a viability, T/C [30] of 69.8%. The viability, T/C [31] was 58.7%, the viability, T/C [32] was 53.3% and the viability, T/C [33] was 99.4%. For the same molecule, the viability, T/C [34] was 61.9%, the viability, T/C [35] was 51.7% and the viability, T/C [36] was 104%.
Molecule CC(C)(O)C1CCC(Nc2ccc3ncc(-c4cccc(C(F)(F)F)c4)n3n2)CC1 (centres undefined) + Cc1[nH]c2ccc(F)cc2c1-c1nc2c3cccnc3c3ncccc3c2[nH]1 has an IC50 (second compound 0.0316 µM) of 2370 nM, an IC50 (second compound 0.1 µM) of 2200 nM and an IC50 (second compound 0.316 µM) of 1970 nM. For the same molecule, the IC50 (second compound 1 µM) was 1810 nM, the IC50 (second compound 3.16 µM) was 1750 nM and the IC50 (second compound 10 µM) was 1650 nM. For the same molecule, the viability, T/C [1] was 87.7%, the viability, T/C [2] was 99.6% and the viability, T/C [3] was 104%. For the same molecule, the viability, T/C [4] was 98.5%, the viability, T/C [5] was 16.1% and the viability, T/C [6] was 52.3%. It also gave a viability, T/C [7] of 101%, a viability, T/C [8] of 82.5% and a viability, T/C [9] of 97.5%. The viability, T/C [10] was 120%, the viability, T/C [11] was 26.7% and the viability, T/C [12] was 26.9%. It also gave a viability, T/C [13] of 68.2%, a viability, T/C [14] of 84.2% and a viability, T/C [15] of 89.3%. For the same molecule, the viability, T/C [16] was 131%, the viability, T/C [17] was 14.9% and the viability, T/C [18] was 24.8%. The viability, T/C [19] was 88%, the viability, T/C [20] was 89.3% and the viability, T/C [21] was 99.9%. It also gave a viability, T/C [22] of 100%, a viability, T/C [23] of 7.25% and a viability, T/C [24] of 9.88%. The viability, T/C [25] was 97.7%, the viability, T/C [26] was 84% and the viability, T/C [27] was 71.5%. It also gave a viability, T/C [28] of 122%, a viability, T/C [29] of 2.95% and a viability, T/C [30] of 4.04%. For the same molecule, the viability, T/C [31] was 87.5%, the viability, T/C [32] was 63% and the viability, T/C [33] was 80.3%. The viability, T/C [34] was 102%, the viability, T/C [35] was 6.15% and the viability, T/C [36] was 7.1%.
